Laboratory results published in ChEMBL document CHEMBL1201862, “PubChem BioAssay data set” (2004).
Active and inactive are the calls of the source.

Experiments:
cells [1] = type: functional, cell-based
cells [2] = type: functional, cell-based; remark: listed apart in the source
[3] = microbe, parasite or virus in culture; type: functional; details: Mycobacterium tuberculosis
[4] = target: Eukaryotic translation initiation factor 4E (Mus musculus, UniProt P63073); experiment: eIF4E–eIF4G protein interaction inhibitors, dose response, biochemical, TR-FRET (AID 855); type: functional;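 also: potency for disrupting eIF4E binding to eIF4GI seen as loss of FRET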
Sequence of Eukaryotic translation initiation factor 4E (P63073 whole entry): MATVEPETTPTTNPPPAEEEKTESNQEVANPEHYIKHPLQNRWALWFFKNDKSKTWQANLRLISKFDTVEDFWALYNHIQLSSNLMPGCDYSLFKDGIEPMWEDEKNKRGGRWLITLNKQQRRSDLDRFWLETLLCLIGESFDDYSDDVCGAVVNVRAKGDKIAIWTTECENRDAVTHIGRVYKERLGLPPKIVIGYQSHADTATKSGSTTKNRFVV

Cytochrome P450 2C19 = Cytochrome P450 2C19 (Homo sapiens, UniProt P33261); experiment: Cytochrome panel assay with activity outcomes. Panel member name: p450-cyp2c19 Compounds with AC50 equal or less than 10 uM are considered active; type: functional; details: read-out: AC50
Sequence of Cytochrome P450 2C19 (P33261 whole entry): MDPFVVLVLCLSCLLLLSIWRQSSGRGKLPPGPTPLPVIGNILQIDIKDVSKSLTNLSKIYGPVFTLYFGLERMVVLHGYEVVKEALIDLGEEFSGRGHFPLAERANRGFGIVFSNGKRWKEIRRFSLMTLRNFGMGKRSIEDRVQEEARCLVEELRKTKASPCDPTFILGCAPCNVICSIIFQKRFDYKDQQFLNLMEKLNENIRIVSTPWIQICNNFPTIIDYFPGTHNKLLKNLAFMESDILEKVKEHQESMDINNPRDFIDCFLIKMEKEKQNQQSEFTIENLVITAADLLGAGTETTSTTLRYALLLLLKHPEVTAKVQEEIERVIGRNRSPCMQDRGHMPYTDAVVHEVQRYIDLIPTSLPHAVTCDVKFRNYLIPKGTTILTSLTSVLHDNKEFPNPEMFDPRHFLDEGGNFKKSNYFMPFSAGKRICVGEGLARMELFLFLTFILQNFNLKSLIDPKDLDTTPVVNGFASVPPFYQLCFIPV

Cytochrome P450 1A2 = target: T1, Cytochrome P450 1A2 (Homo sapiens, UniProt P05177);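 also: PubChem cytochrome P450 panel assay, CYP1A2 panel member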
T1 sequence (P05177 whole entry): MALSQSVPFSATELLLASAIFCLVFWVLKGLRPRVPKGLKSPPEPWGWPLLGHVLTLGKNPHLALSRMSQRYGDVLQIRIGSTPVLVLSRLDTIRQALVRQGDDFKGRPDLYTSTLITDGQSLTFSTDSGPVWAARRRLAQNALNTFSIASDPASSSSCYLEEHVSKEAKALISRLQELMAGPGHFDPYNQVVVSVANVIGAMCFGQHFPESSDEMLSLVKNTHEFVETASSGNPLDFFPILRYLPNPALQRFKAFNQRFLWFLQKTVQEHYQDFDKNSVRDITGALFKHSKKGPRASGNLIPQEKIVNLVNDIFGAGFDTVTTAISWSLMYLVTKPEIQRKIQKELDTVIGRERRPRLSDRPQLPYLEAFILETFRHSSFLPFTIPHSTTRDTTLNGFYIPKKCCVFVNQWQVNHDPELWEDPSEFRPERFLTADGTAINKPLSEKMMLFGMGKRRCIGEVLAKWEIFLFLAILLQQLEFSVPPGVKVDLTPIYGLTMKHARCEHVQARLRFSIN

Cytochrome P450 2C9 = Cytochrome P450 2C9 (Homo sapiens, UniProt P11712)
Sequence of Cytochrome P450 2C9 (P11712 whole entry): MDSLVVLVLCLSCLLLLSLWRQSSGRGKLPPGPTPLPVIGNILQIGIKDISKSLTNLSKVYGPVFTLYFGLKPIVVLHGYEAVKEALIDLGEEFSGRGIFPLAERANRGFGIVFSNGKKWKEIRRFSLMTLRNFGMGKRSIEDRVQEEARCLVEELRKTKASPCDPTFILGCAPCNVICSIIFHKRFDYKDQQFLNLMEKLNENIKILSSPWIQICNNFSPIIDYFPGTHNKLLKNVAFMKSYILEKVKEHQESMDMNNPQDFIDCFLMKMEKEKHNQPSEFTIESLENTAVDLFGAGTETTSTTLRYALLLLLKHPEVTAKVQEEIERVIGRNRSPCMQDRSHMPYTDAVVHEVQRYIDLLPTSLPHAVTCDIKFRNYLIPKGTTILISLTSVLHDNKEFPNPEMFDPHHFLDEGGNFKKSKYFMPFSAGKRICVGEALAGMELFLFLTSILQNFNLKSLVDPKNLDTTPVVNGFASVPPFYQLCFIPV

Cytochrome P450 3A4 = Cytochrome P450 3A4 (Homo sapiens, UniProt P08684);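 also: CYP3A4 tested as one member of a cytochrome P450 panel screen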
Sequence of Cytochrome P450 3A4 (P08684 whole entry): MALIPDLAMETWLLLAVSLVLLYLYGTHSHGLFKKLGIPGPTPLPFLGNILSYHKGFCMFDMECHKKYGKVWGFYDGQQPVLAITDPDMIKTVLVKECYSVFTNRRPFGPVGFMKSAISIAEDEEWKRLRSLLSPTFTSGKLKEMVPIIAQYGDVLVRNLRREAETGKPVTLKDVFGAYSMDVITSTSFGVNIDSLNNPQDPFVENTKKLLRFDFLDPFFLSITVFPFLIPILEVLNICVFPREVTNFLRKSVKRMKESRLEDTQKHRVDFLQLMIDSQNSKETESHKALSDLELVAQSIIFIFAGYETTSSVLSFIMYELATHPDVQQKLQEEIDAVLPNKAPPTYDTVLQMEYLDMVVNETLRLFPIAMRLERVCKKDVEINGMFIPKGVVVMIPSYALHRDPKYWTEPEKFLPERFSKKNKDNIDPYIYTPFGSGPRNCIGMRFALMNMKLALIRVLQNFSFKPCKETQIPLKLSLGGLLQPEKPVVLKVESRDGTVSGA

[5] = THP-1 cell cytotoxicity, dose response, cytotoxicity control for Vif-APOBEC3G degradation inhibitor project, THP-1 cells (AID 1117359); type: functional; details: Human immunodeficiency virus 1, THP-1
Paired box protein Pax-8 = Paired box protein Pax-8 (Homo sapiens, UniProt Q06710); experiment: inhibitors of PAX8-driven TPO luciferase reporter, dose response, RMG-I cells, cherry-pick (AID 687027); type: functional, cell-based;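 also: luciferase reporter driven by Pax8 target thyroperoxidase promoter measured by SteadyGlo luminescence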
Sequence of Paired box protein Pax-8 (Q06710 whole entry): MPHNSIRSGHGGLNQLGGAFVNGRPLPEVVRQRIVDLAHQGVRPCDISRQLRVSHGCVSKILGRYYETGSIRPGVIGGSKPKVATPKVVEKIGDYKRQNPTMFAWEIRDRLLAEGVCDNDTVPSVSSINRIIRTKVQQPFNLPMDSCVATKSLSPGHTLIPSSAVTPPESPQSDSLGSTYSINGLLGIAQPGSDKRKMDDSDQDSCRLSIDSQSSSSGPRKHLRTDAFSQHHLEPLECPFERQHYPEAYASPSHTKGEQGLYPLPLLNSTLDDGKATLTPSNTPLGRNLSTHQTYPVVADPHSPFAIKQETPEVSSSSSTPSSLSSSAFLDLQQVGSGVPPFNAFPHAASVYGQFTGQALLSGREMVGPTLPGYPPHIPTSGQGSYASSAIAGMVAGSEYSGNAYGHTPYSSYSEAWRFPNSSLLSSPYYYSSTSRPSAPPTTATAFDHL

[6] = cytotoxicity in OVCAR8 ovarian cancer cells, dose response, PAX8 project, cell-based, plate reader, dry powder samples (AID 743197); type: functional; details: OVCAR-8
[7] = IGROV1 ovarian cancer cell cytotoxicity, dose response, PAX8 inhibitor project, plate reader, dry powder samples (AID 743043); type: functional, cell-based; details: IGROV-1
[8] = A Cell Based Secondary Assay To Explore Cytotoxicity of Compounds that Sensitize Mycobacterium Tuberculosis to Beta-Lactam Antibiotics.; type: functional
[9] = P. falciparum 3D7-ScDHODH growth inhibitors, dose response, SYBR Green, dry powder samples (AID 1159570); type: functional, cell-based;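 also: parasite growth measured after 72 hours of compound exposure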
[10] = P. falciparum Dd2 growth inhibitors, dose response, SYBR Green, dry powder samples (AID 1159566); type: functional, cell-based;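 also: potency for growth inhibition with lower SYBR green DNA signal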
[11] = P. falciparum ATP4 D1247Y mutant growth inhibitors, dose response, NITD609-resistant line, SYBR Green, dry powder (AID 1159571); type: functional, cell-based;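 also: parasites synchronized at ring stage by sorbitol before testing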

Q: With COc1ccc(C(CC(=O)NCc2ccccc2)Sc2n[nH]c(-c3ccccc3)n2)cc1 (centres undefined) as the compound, how does the EC50 (cells [1]) read?
A: > 350 µM (not active)

Q: What about the EC50 (cells [2]) of the same compound?
A: > 350 µM (not active)

Q: For Clc1ccc2c(c1)C(c1ccccc1Cl)=NCc1nnc(N3CCN(CCOc4ccccc4)CC3)n1-2, which CC50 [3] is on record?
A: > 40 µM (active)

Q: For Cc1ccc(Nc2nc(Oc3ccc(=O)[nH]n3)nc(N(C)C)n2)cc1, which IC50 [4] is on record?
A: > 64 µM (inactive)

Q: Which IC50 [4] does the source give for CC1(C2CC2)NC(=O)NC1=O (centres undefined) here?
A: > 64 µM (inactive)

Q: With COc1cccc(C(=O)/C=C2\Sc3ccccc3N2C)c1 as the compound, how does the CC50 [3] read?
A: > 40 µM (active)

Q: For COc1ccc(Oc2nc(C)cc(C)c2S(C)(=O)=O)cc1, which AC50 (Cytochrome P450 2C19) is on record?
A: 25.1 µM (inconclusive)

Q: What about the AC50 (Cytochrome P450 1A2) of the same compound?
A: 11.2 µM (inconclusive)

Q: And the AC50 (Cytochrome P450 2C9)?
A: 15.8 µM (inconclusive)

Q: And the AC50 (Cytochrome P450 3A4)?
A: inconclusive

Q: Which AC50 (Cytochrome P450 2C9) does the source give for CCC(CC)c1nnc(NC(=O)COc2ccc3c(C)cc(=O)oc3c2)s1 here?
A: 7.08 µM (inconclusive)

Q: What about the AC50 (Cytochrome P450 3A4) of the same compound?
A: inconclusive

Q: For O=C(c1ccc(F)cc1)N1CCC(C(=O)N(Cc2ccccc2)c2ccccc2)CC1, which CC50 [5] is on record?
A: > 40 µM (active)

Q: Which AC50 (Paired box protein Pax-8) does the source give for C[C@@H]1CN([C@H](C)CO)C(=O)c2cc(NC(=O)Nc3ccc(F)cc3)ccc2O[C@@H](C)CCCCO[C@@H]1CN(C)Cc1ccc2c(c1)OCO2 here?
A: 10.9 µM (active)

Q: What about the AC50 [6] of the same compound?
A: 58.6 µM (active)

Q: What does the source list for C[C@H]1CCCCO[C@H](CN(C)C(=O)Nc2cccc3ccccc23)[C@@H](C)CN([C@@H](C)CO)C(=O)c2cc(NS(=O)(=O)c3ccc(Cl)cc3)ccc2O1?
A: AC50 (Paired box protein Pax-8): 4.51 µM (active); AC50 [7]: 55.2 µM (active); AC50 [6]: > 70 µM (inactive)

Q: For O=C(Cc1cccc2ccccc12)N/N=C/c1ccc(OC(=O)/C=C/c2ccco2)cc1, which CC50 [8] is on record?
A: 31.2 µM (active)

Q: Which results are given for C/C(=N\O)C(=O)Nc1ccccc1?
A: EC50 (cells [1]): > 350 µM (not active); EC50 (cells [2]): > 350 µM (not active)

Q: What does the source list for C[C@H](CO)N1C[C@H](C)[C@@H](CN(C)CC2CCCC2)Oc2ncc(C#CCc3ccccc3)cc2C1=O?
A: AC50 [9]: 3.18 µM (active); AC50 [10]: 0.59 µM (active); AC50 [11]: 0.28 µM (active)
